According to paper PMC11992225, “Antibacterial compounds against non-growing and intracellular bacteria” (npj Antimicrobials and Resistance, 2025):
Values after ≈ are worked out from the molar mass of the structure shown. Values joined by “and” are separate entries in the source; they are usually repeats but may differ in a detail not shown here. Equal values may be shown once. Read-outs that look alike come from different tables or passages of the source.

Key:
S. aureus DSM2569 = assay: MIC, standard microdilution assay, growing S. aureus; assay type: cell-based, Staphylococcus aureus; conditions: S. aureus; CA-MHB pH 7.4; read-out: MIC (μM) CA-MHB
Procedure, shortened: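 Each strain was exposed to serially diluted compound in broth, in triplicate. The media were TSB for Shigella; CA-MHB at pH 7.4 (HEPES 40 mM) for S. aureus, P. aeruginosa and UPEC; and, for UPEC only, low-pH LPM (pH 5.5, 30 mM MES).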

non-growing UPEC CFT073 [1] = assay: Dilution-regrowth assay (screen, hit validation, dose-response) on stationary-phase UPEC; assay type: cell-based, Escherichia coli; conditions: E. coli, regrowth delay of non-growing bacteria, 24 h treatment, OD600 6 h after 2500-fold dilution, read-out: EC50
Procedure, shortened: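 Regrowth (OD600 after 6 h, 37 °C) of diluted non-growing CFT073, following 24 h compound treatment of 24 h stationary cultures, defines activity relative to untreated control. Screen at 20 µM, validation at 20, 10, 5 µM (duplicates), dose–response in three biological replicates fitted by five-parameter logistic.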

non-growing UPEC CFT073 [2] = assay: Dose-dependent killing analysis (CFU spot-plating) of stationary-phase UPEC; assay type: cell-based, Escherichia coli
Procedure, shortened: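 Killing assessed by CFU counts: overnight 37 °C LB agar spot plates (10 μl drops of 10-fold PBS dilutions) scored at the lowest dilution with distinct colonies. Samples were compound-treated non-growing UPEC CFT073, 200 μl per well. Performed as three biological replicates.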

[3] = test system: non-growing P. aeruginosa DSM1117; assay: Dose-dependent killing analysis (CFU spot-plating) of stationary-phase P. aeruginosa; assay type: cell-based, Pseudomonas aeruginosa; conditions: for killing, average Δlog10(CFU/ml) / log10(CFU/ml) of treated nongrowing bacteria (single replicates): P. aeruginosa; for log10(CFU/ml) of treated nongrowing bacteria (single replicates): before treatment 8.887
Procedure, shortened: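 Viability by CFU: samples serially diluted 10-fold in PBS, spotted on LB agar, grown overnight at 37 °C, and colonies counted at the lowest resolvable dilution. Non-growing P. aeruginosa DSM1117 had been dosed for 24 h in 1:4 CA-MHB (pH 7.4); three biological replicates.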

[4] = test system: non-growing S. aureus DSM2569; assay: Dose-dependent killing analysis (CFU spot-plating) of stationary-phase S. aureus; assay type: cell-based, Staphylococcus aureus; conditions: for killing, average Δlog10(CFU/ml) / log10(CFU/ml) of treated nongrowing bacteria (single replicates): S. aureus; for log10(CFU/ml) of treated nongrowing bacteria (single replicates): before treatment 9,097
Procedure, shortened: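 Survival was scored as CFU after overnight growth at 37 °C on LB agar, using spots from 10-fold PBS dilutions of treated cultures. Non-growing S. aureus DSM2569 had been exposed to compound for 24 h in 1:4 CA-MHB, pH 7.4. Three biological replicates were run.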

## N[C@@H]1CN(c2c(F)cc3c(=O)c(C(=O)O)cn([C@@H]4C[C@@H]4F)c3c2Cl)CC12CC2 [Sitafloxacin]
S. aureus DSM2569
  MIC: 0.125 µM (≈ 0.0512 µg/mL)
non-growing UPEC CFT073 [1]; LPM pH 5.5
  EC50: 10.8 µM
non-growing UPEC CFT073 [1]; pH 7.4, 1:4 CA-MHB
  EC50: 0.187 µM
non-growing UPEC CFT073 [2]; 24 h treatment of stationary phase culture
  bactericidal activity against non-growing UPEC (CFU counting): most potent and bactericidal
non-growing UPEC CFT073 [2]; E. coli in 1:4 CA-MHB (pH 7.4), drug concentration 0.25
  killing, average Δlog10(CFU/ml): 1.161 log10(CFU/ml)
non-growing UPEC CFT073 [2]; E. coli in 1:4 CA-MHB (pH 7.4), drug concentration 0.25, before treatment 8.977
  log10(CFU/ml) of treated nongrowing bacteria (single replicates): 8.415 log10(CFU/ml) and 7.602 log10(CFU/ml) and 7.431 log10(CFU/ml)
non-growing UPEC CFT073 [2]; E. coli in 1:4 CA-MHB (pH 7.4), drug concentration 0.5
  killing, average Δlog10(CFU/ml): 2.277 log10(CFU/ml)
non-growing UPEC CFT073 [2]; E. coli in 1:4 CA-MHB (pH 7.4), drug concentration 0.5, before treatment 8.977
  log10(CFU/ml) of treated nongrowing bacteria (single replicates): 7.255 log10(CFU/ml) and 6.699 log10(CFU/ml) and 6.146 log10(CFU/ml)
non-growing UPEC CFT073 [2]; E. coli in 1:4 CA-MHB (pH 7.4), drug concentration 1
  killing, average Δlog10(CFU/ml): 3.175 log10(CFU/ml)
non-growing UPEC CFT073 [2]; E. coli in 1:4 CA-MHB (pH 7.4), drug concentration 1, before treatment 8.977
  log10(CFU/ml) of treated nongrowing bacteria (single replicates): 6.204 log10(CFU/ml) and 5.903 log10(CFU/ml) and 5.301 log10(CFU/ml)
non-growing UPEC CFT073 [2]; E. coli in 1:4 CA-MHB (pH 7.4), drug concentration 2.5
  killing, average Δlog10(CFU/ml): 4.145 log10(CFU/ml)
non-growing UPEC CFT073 [2]; E. coli in 1:4 CA-MHB (pH 7.4), drug concentration 2.5, before treatment 8.977
  log10(CFU/ml) of treated nongrowing bacteria (single replicates): 5.176 log10(CFU/ml) and 4.477 log10(CFU/ml) and 4.845 log10(CFU/ml)
non-growing UPEC CFT073 [2]; E. coli in 1:4 CA-MHB (pH 7.4), drug concentration 5
  killing, average Δlog10(CFU/ml): 4.067 log10(CFU/ml)
non-growing UPEC CFT073 [2]; E. coli in 1:4 CA-MHB (pH 7.4), drug concentration 5, before treatment 8.977
  log10(CFU/ml) of treated nongrowing bacteria (single replicates): 5.255 log10(CFU/ml) and 4.699 log10(CFU/ml) and 4.778 log10(CFU/ml)
non-growing UPEC CFT073 [2]; E. coli in 1:4 CA-MHB (pH 7.4), drug concentration 10
  killing, average Δlog10(CFU/ml): 4.500 log10(CFU/ml)
non-growing UPEC CFT073 [2]; E. coli in 1:4 CA-MHB (pH 7.4), drug concentration 10, before treatment 8.977
  log10(CFU/ml) of treated nongrowing bacteria (single replicates): 4.954 log10(CFU/ml) and =<4 log10(CFU/ml) and 4.477 log10(CFU/ml)
non-growing UPEC CFT073 [2]; E. coli in LPM (pH 5.5), drug concentration 0.25
  killing, average Δlog10(CFU/ml): -0.135 log10(CFU/ml)
non-growing UPEC CFT073 [2]; E. coli in LPM (pH 5.5), drug concentration 0.25, before treatment 7.350
  log10(CFU/ml) of treated nongrowing bacteria (single replicates): 7.000 log10(CFU/ml) and 7.176 log10(CFU/ml) and 8.279 log10(CFU/ml)
non-growing UPEC CFT073 [2]; E. coli in LPM (pH 5.5), drug concentration 0.5
  killing, average Δlog10(CFU/ml): 0.023 log10(CFU/ml)
non-growing UPEC CFT073 [2]; E. coli in LPM (pH 5.5), drug concentration 0.5, before treatment 7.350
  log10(CFU/ml) of treated nongrowing bacteria (single replicates): 6.778 log10(CFU/ml) and 7.000 log10(CFU/ml) and 8.204 log10(CFU/ml)
non-growing UPEC CFT073 [2]; E. coli in LPM (pH 5.5), drug concentration 1
  killing, average Δlog10(CFU/ml): -0.037 log10(CFU/ml)
non-growing UPEC CFT073 [2]; E. coli in LPM (pH 5.5), drug concentration 1, before treatment 7.350
  log10(CFU/ml) of treated nongrowing bacteria (single replicates): 7.146 log10(CFU/ml) and 7.114 log10(CFU/ml) and 7.903 log10(CFU/ml)
non-growing UPEC CFT073 [2]; E. coli in LPM (pH 5.5), drug concentration 2.5
  killing, average Δlog10(CFU/ml): 0.324 log10(CFU/ml)
non-growing UPEC CFT073 [2]; E. coli in LPM (pH 5.5), drug concentration 2.5, before treatment 7.350
  log10(CFU/ml) of treated nongrowing bacteria (single replicates): 7.000 log10(CFU/ml) (2×) and 7.079 log10(CFU/ml)
non-growing UPEC CFT073 [2]; E. coli in LPM (pH 5.5), drug concentration 5
  killing, average Δlog10(CFU/ml): 1.016 log10(CFU/ml)
non-growing UPEC CFT073 [2]; E. coli in LPM (pH 5.5), drug concentration 5, before treatment 7.350
  log10(CFU/ml) of treated nongrowing bacteria (single replicates): 6.301 log10(CFU/ml) and 6.954 log10(CFU/ml) and 5.748 log10(CFU/ml)
non-growing UPEC CFT073 [2]; E. coli in LPM (pH 5.5), drug concentration 10
  killing, average Δlog10(CFU/ml): 1.383 log10(CFU/ml)
non-growing UPEC CFT073 [2]; E. coli in LPM (pH 5.5), drug concentration 10, before treatment 7.350
  log10(CFU/ml) of treated nongrowing bacteria (single replicates): 6.279 log10(CFU/ml) and 6.544 log10(CFU/ml) and 5.079 log10(CFU/ml)
[3]; drug concentration 0.1
  killing, average Δlog10(CFU/ml): 1.534 log10(CFU/ml)
  log10(CFU/ml) of treated nongrowing bacteria (single replicates): 7.699 log10(CFU/ml) and 7.362 log10(CFU/ml) and 7.000 log10(CFU/ml)
[3]; drug concentration 0.5
  killing, average Δlog10(CFU/ml): 3.935 log10(CFU/ml)
  log10(CFU/ml) of treated nongrowing bacteria (single replicates): 5.954 log10(CFU/ml) and 4.903 log10(CFU/ml) and =<4 log10(CFU/ml)
[3]; drug concentration 2.5
  killing, average Δlog10(CFU/ml): 4.787 log10(CFU/ml)
  log10(CFU/ml) of treated nongrowing bacteria (single replicates): =<4 log10(CFU/ml) (2×) and 4.301 log10(CFU/ml)
[3]; drug concentration 10
  killing, average Δlog10(CFU/ml): 4.353 log10(CFU/ml)
  log10(CFU/ml) of treated nongrowing bacteria (single replicates): 5.000 log10(CFU/ml) and 4.602 log10(CFU/ml) and =<4 log10(CFU/ml)
[3]; at 0.5 µM, 24 h treatment
  reduction of bacterial counts, stationary phase P. aeruginosa: more than four
[3]; at 2.5 µM, 1:4 CA-MHB pH 7.4, 24 h treatment
  reduction of bacterial counts, non-growing P. aeruginosa: more than four
[4]; 10 to 0.1 μM, 24 h treatment
  killing of non-growing S. aureus (reduction of bacterial counts): the most activity
[4]; drug concentration 0.1
  killing, average Δlog10(CFU/ml): 0.348 log10(CFU/ml)
  log10(CFU/ml) of treated nongrowing bacteria (single replicates): 8.602 log10(CFU/ml) and 8.881 log10(CFU/ml) and 8.763 log10(CFU/ml)
[4]; drug concentration 0.5
  killing, average Δlog10(CFU/ml): 1.504 log10(CFU/ml)
  log10(CFU/ml) of treated nongrowing bacteria (single replicates): 7.223 log10(CFU/ml) and 7.833 log10(CFU/ml) and 7.724 log10(CFU/ml)
[4]; drug concentration 2.5
  killing, average Δlog10(CFU/ml): 2.447 log10(CFU/ml)
  log10(CFU/ml) of treated nongrowing bacteria (single replicates): 6.820 log10(CFU/ml) and 6.716 log10(CFU/ml) and 6.413 log10(CFU/ml)
[4]; drug concentration 10
  killing, average Δlog10(CFU/ml): 2.500 log10(CFU/ml)
  log10(CFU/ml) of treated nongrowing bacteria (single replicates): 6.908 log10(CFU/ml) and 6.613 log10(CFU/ml) and 6.270 log10(CFU/ml)
